Measured values from patent US10670605B2, “Cysteine reactive probes and uses thereof” (The Scripps Research Institute, priority 2015, dated 2020).
Blank lines part the entries; values can stand above or below the compound they belong to.

Legend:
Test in all cases: Competitive isoTOP-ABPP in situ (fragment-treated cells)
Format in all cases: cell-based
[1] = biological target: T1, cysteines in MDA-MB-231 and Ramos cells (Homo sapiens, UniProt Q9NP73)
T1 sequence (Q9NP73 1-1137): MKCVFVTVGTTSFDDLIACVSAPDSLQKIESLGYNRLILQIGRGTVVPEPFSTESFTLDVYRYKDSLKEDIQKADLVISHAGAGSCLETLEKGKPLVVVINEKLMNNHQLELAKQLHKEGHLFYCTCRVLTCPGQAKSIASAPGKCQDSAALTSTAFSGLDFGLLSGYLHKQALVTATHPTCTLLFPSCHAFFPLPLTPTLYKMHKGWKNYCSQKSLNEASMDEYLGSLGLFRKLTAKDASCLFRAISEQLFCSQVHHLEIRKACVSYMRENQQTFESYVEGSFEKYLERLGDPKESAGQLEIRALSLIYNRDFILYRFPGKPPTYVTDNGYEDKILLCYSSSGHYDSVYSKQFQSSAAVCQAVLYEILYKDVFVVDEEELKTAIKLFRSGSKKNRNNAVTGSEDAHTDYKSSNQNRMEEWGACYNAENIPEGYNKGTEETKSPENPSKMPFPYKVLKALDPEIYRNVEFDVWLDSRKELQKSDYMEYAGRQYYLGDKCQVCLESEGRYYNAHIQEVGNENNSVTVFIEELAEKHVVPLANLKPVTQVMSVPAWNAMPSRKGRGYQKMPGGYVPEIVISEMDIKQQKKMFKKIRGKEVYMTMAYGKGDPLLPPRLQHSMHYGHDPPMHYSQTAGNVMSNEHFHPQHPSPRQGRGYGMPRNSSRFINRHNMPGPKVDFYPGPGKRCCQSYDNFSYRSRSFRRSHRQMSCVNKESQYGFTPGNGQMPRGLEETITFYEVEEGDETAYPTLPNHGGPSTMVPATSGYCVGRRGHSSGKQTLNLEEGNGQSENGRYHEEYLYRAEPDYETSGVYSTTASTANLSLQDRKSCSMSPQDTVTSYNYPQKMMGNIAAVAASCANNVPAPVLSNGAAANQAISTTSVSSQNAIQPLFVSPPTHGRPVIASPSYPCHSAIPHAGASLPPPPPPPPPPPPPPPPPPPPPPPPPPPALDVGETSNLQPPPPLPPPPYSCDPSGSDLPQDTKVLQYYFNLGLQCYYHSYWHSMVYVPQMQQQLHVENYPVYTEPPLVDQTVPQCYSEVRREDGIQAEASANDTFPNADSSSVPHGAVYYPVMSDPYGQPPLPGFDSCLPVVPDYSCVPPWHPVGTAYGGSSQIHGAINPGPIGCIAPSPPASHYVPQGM

[2] = biological target: cysteines in MDA-MB-231 and Ramos cells (Homo sapiens, UniProt O15446); conditions: 200 μM, insitu, 231
Chain of cysteines in MDA-MB-231 and Ramos cells (Homo sapiens, UniProt O15446) (O15446 whole entry): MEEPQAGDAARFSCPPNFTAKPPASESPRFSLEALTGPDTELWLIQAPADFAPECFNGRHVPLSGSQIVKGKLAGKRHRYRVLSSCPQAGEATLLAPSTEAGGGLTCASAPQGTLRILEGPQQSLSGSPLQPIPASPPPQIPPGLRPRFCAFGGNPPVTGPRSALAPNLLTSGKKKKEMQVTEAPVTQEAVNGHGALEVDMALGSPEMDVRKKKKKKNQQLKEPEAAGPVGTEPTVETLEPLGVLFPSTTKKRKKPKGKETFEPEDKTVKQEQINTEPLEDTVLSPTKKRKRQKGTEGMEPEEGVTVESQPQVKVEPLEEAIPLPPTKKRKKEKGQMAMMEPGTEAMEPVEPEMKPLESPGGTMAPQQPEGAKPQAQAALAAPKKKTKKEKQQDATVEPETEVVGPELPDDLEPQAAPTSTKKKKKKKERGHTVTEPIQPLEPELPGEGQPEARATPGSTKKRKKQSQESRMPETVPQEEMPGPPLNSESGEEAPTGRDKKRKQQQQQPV

[3] = biological target: T2, cysteines in MDA-MB-231 and Ramos cells (Homo sapiens, UniProt Q9NQ88)
T2 sequence (Q9NQ88 1-270): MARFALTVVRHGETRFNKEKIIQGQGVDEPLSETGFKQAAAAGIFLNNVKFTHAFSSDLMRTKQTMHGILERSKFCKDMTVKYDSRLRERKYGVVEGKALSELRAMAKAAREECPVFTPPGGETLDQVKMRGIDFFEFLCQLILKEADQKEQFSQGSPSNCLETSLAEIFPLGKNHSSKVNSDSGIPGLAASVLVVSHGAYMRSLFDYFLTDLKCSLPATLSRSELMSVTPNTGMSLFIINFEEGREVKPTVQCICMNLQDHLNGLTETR

[4] = biological target: cysteines in MDA-MB-231 and Ramos cells (Homo sapiens, UniProt O60825); conditions: 200 μM, insitu
Chain of cysteines in MDA-MB-231 and Ramos cells (Homo sapiens, UniProt O60825) (O60825 whole entry): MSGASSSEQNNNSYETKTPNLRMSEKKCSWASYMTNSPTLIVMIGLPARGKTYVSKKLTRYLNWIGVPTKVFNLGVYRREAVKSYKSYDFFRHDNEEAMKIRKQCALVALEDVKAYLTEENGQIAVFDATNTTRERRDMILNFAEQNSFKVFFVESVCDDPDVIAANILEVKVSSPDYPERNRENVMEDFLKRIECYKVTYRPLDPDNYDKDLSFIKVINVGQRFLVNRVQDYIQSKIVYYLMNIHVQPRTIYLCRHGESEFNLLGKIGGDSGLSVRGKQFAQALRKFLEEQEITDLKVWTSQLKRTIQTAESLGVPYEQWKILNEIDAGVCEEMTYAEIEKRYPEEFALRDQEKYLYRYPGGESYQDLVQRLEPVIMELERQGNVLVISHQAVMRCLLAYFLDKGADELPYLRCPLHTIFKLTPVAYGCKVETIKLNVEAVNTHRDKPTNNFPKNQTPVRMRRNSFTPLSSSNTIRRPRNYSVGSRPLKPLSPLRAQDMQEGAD

[5] = biological target: T3, cysteines in MDA-MB-231 and Ramos cells (Homo sapiens, UniProt Q9P0J1)
T3 sequence (Q9P0J1 72-537): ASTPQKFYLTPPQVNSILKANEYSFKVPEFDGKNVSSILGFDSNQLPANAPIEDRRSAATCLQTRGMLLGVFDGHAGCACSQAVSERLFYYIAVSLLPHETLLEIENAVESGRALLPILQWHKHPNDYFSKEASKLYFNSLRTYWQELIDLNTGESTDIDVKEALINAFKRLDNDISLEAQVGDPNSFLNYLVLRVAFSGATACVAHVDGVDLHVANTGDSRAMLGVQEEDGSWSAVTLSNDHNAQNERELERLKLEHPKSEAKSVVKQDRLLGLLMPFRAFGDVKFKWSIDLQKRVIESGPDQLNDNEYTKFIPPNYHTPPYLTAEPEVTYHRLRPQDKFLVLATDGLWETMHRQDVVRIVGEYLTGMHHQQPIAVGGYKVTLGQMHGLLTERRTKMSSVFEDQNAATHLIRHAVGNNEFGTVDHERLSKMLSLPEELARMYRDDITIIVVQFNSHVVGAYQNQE

[6] = biological target: T4, cysteines in MDA-MB-231 and Ramos cells (Homo sapiens, UniProt Q15345)
T4 sequence (Q15345 1-812): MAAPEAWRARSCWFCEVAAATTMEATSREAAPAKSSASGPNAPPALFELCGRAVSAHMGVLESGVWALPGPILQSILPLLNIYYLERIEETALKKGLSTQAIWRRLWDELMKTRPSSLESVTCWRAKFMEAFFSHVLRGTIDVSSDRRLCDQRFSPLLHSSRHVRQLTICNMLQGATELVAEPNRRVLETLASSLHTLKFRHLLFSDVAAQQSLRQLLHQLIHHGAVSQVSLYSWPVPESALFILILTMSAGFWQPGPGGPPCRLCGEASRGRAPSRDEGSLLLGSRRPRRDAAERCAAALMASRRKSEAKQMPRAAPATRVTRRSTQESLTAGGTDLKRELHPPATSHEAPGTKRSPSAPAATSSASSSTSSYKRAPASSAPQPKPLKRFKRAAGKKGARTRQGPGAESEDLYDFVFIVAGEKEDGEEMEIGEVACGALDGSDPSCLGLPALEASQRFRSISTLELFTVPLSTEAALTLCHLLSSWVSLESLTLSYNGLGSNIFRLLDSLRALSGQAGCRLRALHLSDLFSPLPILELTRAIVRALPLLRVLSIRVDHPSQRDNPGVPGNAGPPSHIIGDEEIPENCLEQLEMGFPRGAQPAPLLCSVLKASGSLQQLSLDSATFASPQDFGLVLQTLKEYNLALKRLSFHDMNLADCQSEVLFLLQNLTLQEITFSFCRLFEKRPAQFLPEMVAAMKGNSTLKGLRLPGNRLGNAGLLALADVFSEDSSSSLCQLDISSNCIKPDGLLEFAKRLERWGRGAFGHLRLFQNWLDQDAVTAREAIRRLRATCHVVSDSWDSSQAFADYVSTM

- isoTOP-ABPP reactivity Q9NP73_C86 ALG13 ([1]; 200 μM, insitu, 231): 20.0
- isoTOP-ABPP reactivity O15446_C86 CD3EAP [2]: 3.9
- isoTOP-ABPP reactivity Q9NQ88_C114 TIGAR ([3]; 200 μM, insitu, 231): 2.8
- isoTOP-ABPP reactivity Q9NQ88_C161 TIGAR ([3]; 200 μM, insitu, 231): 6.0
- isoTOP-ABPP reactivity O60825_C158 PFKFB2 [4]; 231: 0.7
- isoTOP-ABPP reactivity Q9P0J1_C149 PDP1 ([5]; 200 μM, insitu, 231): 20.0
Compound: COc1ccc2c(c1)CCCN2C(=O)CCl [compound 2]

- isoTOP-ABPP reactivity Q9NP73_C86 ALG13 ([1]; 100 μM in situ 231): 20.0
Compound: COc1ccc(C2CC(c3cccs3)=NN2C(=O)CCl)cc1 (stereo not drawn) [compound 4]

- isoTOP-ABPP reactivity Q9NQ88_C114 TIGAR ([3]; 200 μM, insitu, 231): 1.9
- isoTOP-ABPP reactivity Q9NQ88_C161 TIGAR ([3]; 200 μM, insitu, 231): 2.6
Compound: O=C(CCl)N1CCC(Cc2ccccc2)CC1 [compound 9]

- isoTOP-ABPP ratio, cysteine O15446_C86 [2]: 4.7
- isoTOP-ABPP ratio Q9NQ88_C114 ([3]; 200 μM, insitu, 231): 2.1
- isoTOP-ABPP ratio Q9NQ88_C161 ([3]; 200 μM, insitu, 231): 4.6
- isoTOP-ABPP ratio Q9NQ88_C161 ([3]; 200 μM, insitu, ramos): 2.1
- isoTOP-ABPP ratio O60825_C158 [4]; 231: 0.7
- isoTOP-ABPP ratio O60825_C158 ([4]; ramos): 1.2
- isoTOP-ABPP ratio, cysteine Q9P0J1_C149 ([5]; 200 μM, insitu, 231): 18.0
Compound: O=C(CCl)N1CCN(S(=O)(=O)c2ccccc2F)CC1 [compound 10]

- isoTOP-ABPP ratio Q9NP73_C86 ([1]; 100 μM in situ 231): 0.7
- isoTOP-ABPP ratio Q9NQ88_C114 ([3]; 100 μM in situ 231): 0.8
- isoTOP-ABPP ratio Q9NQ88_C161 ([3]; 100 μM in situ 231): 0.9
- isoTOP-ABPP ratio, cysteine Q15345_C297 ([6]; 100 μM in situ 231): 1.1
- isoTOP-ABPP ratio, cysteine Q9P0J1_C149 ([5]; 100 μM in situ 231): 1.4
Compound: Cn1cc(S(=O)(=O)N2CCOCC2)cc1C(=O)NC(=O)CCl [compound 11]

- isoTOP-ABPP ratio, cysteine O15446_C86 [2]: 3.3
- isoTOP-ABPP ratio O60825_C158 [4]; 231: 0.8
- isoTOP-ABPP ratio, cysteine Q9P0J1_C149 ([5]; 200 μM, insitu, 231): 18.5
Compound: O=C(CCl)NC(=O)NC12CC3CC(CC(C3)C1)C2 [compound 12]

- isoTOP-ABPP ratio Q9NP73_C86 ([1]; 200 μM, insitu, 231): 0.9
- isoTOP-ABPP ratio Q9NP73_C86 ([1]; 200 μM, insitu, ramos): 1.4
- isoTOP-ABPP ratio, cysteine O15446_C86 [2]: 1.3
- isoTOP-ABPP ratio Q9NQ88_C114 ([3]; 200 μM, insitu, 231): 1.1
- isoTOP-ABPP ratio Q9NQ88_C161 ([3]; 200 μM, insitu, 231): 1.1
- isoTOP-ABPP ratio Q9NQ88_C114 ([3]; 200 μM, insitu, ramos): 1.2
- isoTOP-ABPP ratio Q9NQ88_C161 ([3]; 200 μM, insitu, ramos): 1.5
- isoTOP-ABPP ratio O60825_C158 ([4]; ramos): 0.9
- isoTOP-ABPP ratio, cysteine Q15345_C297 ([6]; 200 μM, insitu, 231): 1.6
Compound: O=C(CCl)NCCc1c[nH]c2ccccc12 [compound 13]

- isoTOP-ABPP ratio, cysteine O15446_C86 [2]: 1.7
- isoTOP-ABPP ratio Q9NQ88_C114 ([3]; 200 μM, insitu, 231): 0.9
- isoTOP-ABPP ratio Q9NQ88_C161 ([3]; 200 μM, insitu, 231): 1.0
- isoTOP-ABPP ratio O60825_C158 [4]; 231: 1.4
- isoTOP-ABPP ratio, cysteine Q15345_C297 ([6]; 200 μM, insitu, 231): 1.1
Compound: O=C(CCl)NC12CC3CC(CC(C3)C1)C2 [compound 21]

- isoTOP-ABPP ratio Q9NP73_C86 ([1]; 200 μM, insitu, 231): 0.4
- isoTOP-ABPP ratio Q9NQ88_C114 ([3]; 200 μM, insitu, 231): 0.4
- isoTOP-ABPP ratio Q9NQ88_C161 ([3]; 200 μM, insitu, 231): 0.6
Compound: CC(C)CCOCCNC(=O)CCl [compound 27]

- isoTOP-ABPP ratio Q9NP73_C86 ([1]; 200 μM, insitu, ramos): 2.0
- isoTOP-ABPP ratio Q9NQ88_C114 ([3]; 200 μM, insitu, ramos): 0.9
- isoTOP-ABPP ratio Q9NQ88_C161 ([3]; 200 μM, insitu, ramos): 1.3
- isoTOP-ABPP ratio O60825_C158 ([4]; ramos): 0.9
- isoTOP-ABPP ratio Q9P0J1_C149 ([5]; 200 μM, insitu, ramos): 1.0
Compound: O=C(CCl)N1CCN(CC(=O)N2CCOCC2)CC1 [compound 29]

- isoTOP-ABPP ratio Q9NQ88_C161 ([3]; 200 μM, insitu, 231): 1.0
- isoTOP-ABPP ratio Q9NQ88_C161 ([3]; 200 μM, insitu, ramos): 2.6
- isoTOP-ABPP ratio O60825_C158 ([4]; ramos): 1,3
- isoTOP-ABPP ratio Q15345_C297 ([6]; 200 μM, insitu, 231): 0.9
Compound: C=CC(=O)N(Cc1cccnc1)c1cc(C(F)(F)F)cc(C(F)(F)F)c1 [compound 31]

- isoTOP-ABPP ratio Q9NP73_C86 ([1]; 200 μM, insitu, 231): 1.3
- isoTOP-ABPP ratio Q15345_C297 ([6]; 200 μM, insitu, 231): 1.4
- isoTOP-ABPP ratio Q9P0J1_C149 ([5]; 200 μM, insitu, 231): 0.9
Compound: C=CC(=O)Nc1cc(F)c(N2CCN(C(=O)OC(C)(C)C)CC2)c(F)c1 [compound 38]

- isoTOP-ABPP ratio Q9NP73_C86 ([1]; 200 μM, insitu, 231): 0.5
- isoTOP-ABPP ratio Q9NQ88_C114 ([3]; 200 μM, insitu, 231): 0.6
- isoTOP-ABPP ratio O60825_C158 [4]; 231: 0.7
- isoTOP-ABPP ratio Q15345_C297 ([6]; 200 μM, insitu, 231): 0.8
- isoTOP-ABPP ratio Q9P0J1_C149 ([5]; 200 μM, insitu, 231): 20.0
Compound: Cc1ccc(C=C(C#N)C(=O)NCCN2CCOCC2)cc1 [compound 41]

- isoTOP-ABPP ratio Q9NP73_C86 ([1]; 200 μM, insitu, 231): 20.0
- isoTOP-ABPP ratio O15446_C86 [2]: 4.6
- isoTOP-ABPP ratio Q9NQ88_C114 ([3]; 200 μM, insitu, 231): 4.6
- isoTOP-ABPP ratio Q9NQ88_C161 ([3]; 200 μM, insitu, 231): 20.0
- isoTOP-ABPP ratio O60825_C158 [4]; 231: 1.3
Compound: CC1CCc2ccccc2N1C(=O)CCl (stereo not drawn) [compound 45]

- isoTOP-ABPP ratio Q9NP73_C86 ([1]; 200 μM, insitu, 231): 1.3
- isoTOP-ABPP ratio O60825_C158 [4]; 231: 0.9
- isoTOP-ABPP ratio Q9P0J1_C149 ([5]; 200 μM, insitu, 231): 0.8
Compound: O=C(CCl)Nc1cccc2ncccc12 [compound 51]
